Laboratory results published in PMC8959664, “Elucidating Therapeutic and Biological Potential of Berberis baluchistanica Ahrendt Bark, Leaf, and Root Extracts” (Frontiers in Microbiology, 2022).

Test system: T1, trypsin
T1 construct: gene PRSS1; commercial-type enzyme; bovine is only a guess (porcine equally possible)
Assay: casein digestion, perchloric acid precipitation, absorbance […] nm
Format: biochemical
Settings: casein 0.8% substrate, Tris-HCl pH 7.4, 37°C, 5 min preincubation

CC(=O)Oc1ccccc1C(=O)O [aspirin]
Protein inhibition denaturation IC50: 430 ± 100 µg/mL
